Experimental data: article PMC11762957, “Rescue of Mutant CFTR Channel Activity by Investigational Co-Potentiator Therapy” (Biomedicines, 2025)

Assays:
p.Ser549Arg-CFTR = molecular target: T1, p.Ser549Arg-CFTR (Homo sapiens, UniProt P13569, S549R); assay: HS-YFP assay, CFBE41o- cells transiently transfected with p.Ser549Arg-CFTR; assay type: cell-based; details: c.1645A>C or c.1647T>G, Fsk 5 μM
T1 construct: expressed in transfected cells; host or cells: CFBE41o- cells stably expressing HS-YFP, transient transfection of pcDNA5-CFTR
T1 sequence (P13569 whole entry S549R): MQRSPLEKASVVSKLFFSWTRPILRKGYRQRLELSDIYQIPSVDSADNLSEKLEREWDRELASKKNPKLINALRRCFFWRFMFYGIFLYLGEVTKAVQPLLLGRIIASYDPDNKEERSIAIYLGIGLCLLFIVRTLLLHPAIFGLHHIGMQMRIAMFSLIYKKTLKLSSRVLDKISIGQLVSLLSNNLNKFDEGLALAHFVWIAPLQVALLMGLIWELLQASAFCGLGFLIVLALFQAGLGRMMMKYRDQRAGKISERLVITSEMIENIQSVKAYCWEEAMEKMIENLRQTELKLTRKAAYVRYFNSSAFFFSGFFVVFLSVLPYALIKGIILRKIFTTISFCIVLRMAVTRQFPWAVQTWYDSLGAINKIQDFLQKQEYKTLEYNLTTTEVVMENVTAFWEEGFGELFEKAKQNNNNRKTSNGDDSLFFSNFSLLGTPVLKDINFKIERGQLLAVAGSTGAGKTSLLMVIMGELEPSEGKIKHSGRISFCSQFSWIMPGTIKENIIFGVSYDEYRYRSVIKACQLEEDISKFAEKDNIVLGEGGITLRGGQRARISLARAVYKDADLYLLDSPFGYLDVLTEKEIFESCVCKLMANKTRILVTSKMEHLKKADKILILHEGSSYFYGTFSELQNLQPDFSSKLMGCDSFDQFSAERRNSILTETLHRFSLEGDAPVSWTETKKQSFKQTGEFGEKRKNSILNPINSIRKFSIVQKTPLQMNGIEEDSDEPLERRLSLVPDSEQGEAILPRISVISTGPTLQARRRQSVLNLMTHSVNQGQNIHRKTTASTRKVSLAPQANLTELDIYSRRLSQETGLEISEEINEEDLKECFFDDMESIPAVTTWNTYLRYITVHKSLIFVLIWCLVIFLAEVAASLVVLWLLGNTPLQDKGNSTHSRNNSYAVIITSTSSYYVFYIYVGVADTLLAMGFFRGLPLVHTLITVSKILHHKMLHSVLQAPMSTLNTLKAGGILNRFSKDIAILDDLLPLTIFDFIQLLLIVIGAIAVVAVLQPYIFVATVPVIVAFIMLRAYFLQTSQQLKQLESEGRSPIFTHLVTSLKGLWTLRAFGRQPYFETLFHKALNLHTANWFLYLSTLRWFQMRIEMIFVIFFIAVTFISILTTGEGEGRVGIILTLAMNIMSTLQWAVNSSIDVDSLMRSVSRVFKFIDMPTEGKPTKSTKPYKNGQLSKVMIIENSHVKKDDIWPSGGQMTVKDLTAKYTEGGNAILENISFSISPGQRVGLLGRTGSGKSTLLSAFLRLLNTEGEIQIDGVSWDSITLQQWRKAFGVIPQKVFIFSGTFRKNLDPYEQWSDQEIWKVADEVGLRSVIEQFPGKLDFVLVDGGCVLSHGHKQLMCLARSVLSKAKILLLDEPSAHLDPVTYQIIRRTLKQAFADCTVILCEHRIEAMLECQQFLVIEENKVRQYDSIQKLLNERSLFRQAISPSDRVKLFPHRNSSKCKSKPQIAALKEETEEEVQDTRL
Method: Site-directed mutagenesis was performed using KOD HOT start DNA polymerase (#71086-3, Sigma-Aldrich, St. Louis, MO, USA), according to manufacturer’s instructions, to insert variants under study (c.613C>T or p.Pro205Ser; c.1645A>C or p.Ser549Arg; c.1647T>G or p.Ser549Arg; c.1652G>A or p.Gly551Asp; c.2834C>T or p.Ser945Leu; and c.4046G>A or p.Gly1349Asp) into CFTR cDNA cloned in the pcDNA5 expression vector. After confirmation by Sanger sequencing, CFBE41o^− cells expressing HS-YFP seeded onto 96-well plates were transfected with 0.1 µg per well of the indicated plasmid. Lipofectamine 3000 (#L3000015, ThermoFischer Scientific, Waltham, MA, USA) was used as the transfection agent diluted in Opti-MEM reduced serum medium (#31985070, ThermoFischer Scientific, Waltham, MA, USA) according to manufacturer’s instructions.
CFTR activity was determined by the HS-YFP microfluorimetric assay (described in detail in previous studies) using CFBE41o^− cells expressing HS-YFP together with stably expressed p.Arg334Trp-CFTR or transiently transfected with CFTR cDNA (variants p.Pro205Ser, p.Ser549Arg, p.Gly551Asp, p.Ser945Leu, and p.Gly1349Asp) cloned into pcDNA5. […] Thereafter, cells were transferred to a microplate reader (Tecan Infinite 200 Pro) equipped with high-quality excitation (485 ± 20 nm) and emission (535 ± 25 nm) filters for YFP. Each reading consisted of a continuous 14 s fluorescence recording with 2 s before and 12 s after injection of 165 μL of an iodide-containing solution (PBS with Cl^− replaced by I^−; final I^− concentration: 100 mM). Data were normalized to the initial background-subtracted fluorescence. […]
As CFTR variants with similar defect(s) may respond differently to the same treatment(s), we assessed whether LSO-24 or its derivative LSO-150, alone or in combination(s), could rescue CFTR activity for other variants with gating/conductance defects. […] After 24 h, the cells were acutely stimulated with Fsk plus test compound(s), and the cell fluorescence was recorded before and after the addition of an I^−-containing solution. […]

p.Arg334Trp-CFTR = molecular target: T2, p.Arg334Trp-CFTR (Homo sapiens, UniProt P13569, R334W); assay: HS-YFP assay on a plate reader (CFTR-mediated I- influx), CFBE41o- cells co-expressing HS-YFP and p.Arg334Trp-CFTR; assay type: cell-based
T2 construct: expressed in transfected cells
T2 sequence (P13569 whole entry R334W): as the sequence (P13569 whole entry S549R) above, with R334W, R549S counted along it
Method: Parental CFBE41o^− cells stably expressing HS-YFP (p.His148Gln-Ile152Leu) were cultured in minimum essential medium (MEM, #10-010-CV, Corning, VA, USA) supplemented with 10% fetal bovine serum (#LTI 10270-106, Gibco, Carlsbad, CA, USA). CFBE41o^− cells stably co-expressing HS-YFP (p.Phe46Leu-His148Gln-Ile152Leu) and p.Arg334Trp-CFTR were cultured in a similar medium including 2 µg mL^−1 puromycin (#P8833, Sigma-Aldrich, St. Louis, MO, USA). For the YFP assay of CFTR activity, cells were plated (30,000 cells/well) on 96-well clear-bottom, black-walled microplates (#655090, Greiner Bio-One, Kremsmünster, Austria). All cells were maintained in a humidified incubator (5% CO2) at 37 °C.
CFTR activity was determined by the HS-YFP microfluorimetric assay (described in detail in previous studies) using CFBE41o^− cells expressing HS-YFP together with stably expressed p.Arg334Trp-CFTR or transiently transfected with CFTR cDNA (variants p.Pro205Ser, p.Ser549Arg, p.Gly551Asp, p.Ser945Leu, and p.Gly1349Asp) cloned into pcDNA5. Briefly, cells were washed with phosphate-buffered saline (PBS; in mM: 137 NaCl, 2.7 KCl, 8.1 Na2HPO4, 1.5 KH2PO4, 1 CaCl2, and 0.5 MgCl2) and then incubated for 30 min at 37 °C with 60 μL of PBS plus Fsk (5 μM) and test compound(s) to stimulate CFTR channels. DMSO (vehicle) and VX-770 (1 μM) were used as negative and positive controls, respectively. All conditions were performed in triplicate on each plate. Thereafter, cells were transferred to a microplate reader (Tecan Infinite 200 Pro) equipped with high-quality excitation (485 ± 20 nm) and emission (535 ± 25 nm) filters for YFP. Each reading consisted of a continuous 14 s fluorescence recording with 2 s before and 12 s after injection of 165 μL of an iodide-containing solution (PBS with Cl^− replaced by I^−; final I^− concentration: 100 mM). Data were normalized to the initial background-subtracted fluorescence. To determine the I^− influx rate, the final 11 s of the data for each well were fitted with an exponential function to extrapolate the initial slope (dF/dt).
All the compounds (Scheme 1) were tested in CFBE41o^− cells co-expressing HS-YFP and p.Arg334Trp-CFTR to assess CFTR-mediated I^− influx based on fluorescence quenching. The cells were incubated for 30 min with Fsk (an adenyl cyclase activator that increases intracellular cAMP levels) plus the test compounds in two different concentrations (3 and 20 μM). Thereafter, the efficacy of the compounds in rescuing CFTR activity was determined by the YFP quenching rate and normalized to DMSO (negative control). […] Such an increase was equivalent to that of the cells treated with VX-770 or apigenin (used as positive controls).
Next, the active compounds were submitted for further analysis for evaluation of their potency and efficacy. To this aim, the compounds were retested as potentiators at various concentrations in the range 0.16–30 μM with Fsk on CFBE41o^− cells.

Structure (SMILES): CCOC(=O)c1ccc(-n2cc(C(O)c3ccc(Br)cc3)nn2)cc1 (stereo not drawn) [LSO-150]
- Net effect with co-administration of ABBV-3067 (p.Ser549Arg-CFTR; + ABBV-3067 10 μM): increased
- Net effect with co-administration of VX-770 (p.Ser549Arg-CFTR; + VX-770 1 μM): increased
- CFTR activity (fluorescence quenching rate), single compound (p.Ser549Arg-CFTR; LSO-24 5 μM, LSO-150 3 μM): increased CFTR activity
- EC50 (p.Arg334Trp-CFTR; CFBE41o- cells, with Fsk, concentrations 0.16–30 μM, read-out: EC50 (potentiation of p.Arg334Trp-CFTR activity)): 1010 nM
- Fluorescence quenching rate in combination with ABBV-974 (p.Arg334Trp-CFTR; LSO-150 3 μM or LSO-153 5 μM + ABBV-974 10 μM, Fsk 5 μM, vs single potentiator): further increase in the fluorescence quenching rate
- Fluorescence quenching rate in combination with ABBV-3067 (p.Arg334Trp-CFTR; LSO-150 3 μM or LSO-153 5 μM + ABBV-3067 10 μM, Fsk 5 μM, vs single potentiator): further increase in the fluorescence quenching rate
- Fluorescence quenching rate in combination with VX-770 (p.Arg334Trp-CFTR; LSO-150 3 μM or LSO-153 5 μM + VX-770 1 μM, Fsk 5 μM, vs single potentiator): further increase in the fluorescence quenching rate
- Fluorescence quenching rate in combination with apigenin (p.Arg334Trp-CFTR; LSO-150 3 μM or LSO-153 5 μM + apigenin 50 μM, Fsk 5 μM, vs single potentiator): equivalent cell-fluorescence quenching rate to that of each compound individually
- CFTR-mediated I- influx (YFP quenching rate normalized to DMSO) (p.Arg334Trp-CFTR; test compound 3 and 20 μM, 30 min with Fsk 5 μM, vs DMSO): increase in CFTR-mediated I^− influx
